We go through two molecules from patent publication US20220151896A1, “EFFICIENT SUNSCREEN COMPOSITIONS WITH DIETHYLAMINO HYDROXYBENZOYL HEXYL BENZOATE AND ORGANIC PARTICULATE UV FILTER” (BASF SE, priority 2019, published 2022).

Data set [1] is described as follows: Interfacial tension (polarity index) of emollients, Tensimat Densimat TD2000. Type of data set: physicochemical. The following applies: interfacial tension oil/water. From the text:
The term “polarity index” refers to non-polar or polar oils. Non-polar oils are mainly based on hydrocarbons and lack an electronegative element, such as oxygen. In contrast, polar oils contain heteroatoms that differ in electronegativity, which results in a dipole moment. However, such oils are still insoluble in water, i.e. hydrophob. The polarity index can be determined by measuring the interfacial tension between the respective oil and water.
Interfacial tension of the respective emollients as listed below was measured using a Tensimat Densimat TD2000.

For data set [2] the following is noted: general description of the commercial UV filter; cited from earlier work.

In data set [1], `O1[SiH2]O[SiH2]O[SiH2]O[SiH2]O[SiH2]1` (centres unmarked) [cyclopentasiloxane] came in with a polarity index of 32 mN/m.
Regarding `CCCCC(CC)COC(=O)c1ccc(Nc2nc(Nc3ccc(C(=O)NC(C)(C)C)cc3)nc(Nc3ccc(C(=O)OCC(CC)CCCC)cc3)n2)cc1` (centres unmarked) [diethylhexyl-butamidotriazone, 4,4′-[[6-[[4-[[(1,1-dimethylethyl)amino]carbonyl]phenyl]amino]-1,3,5-triazin-2,4-diyl]diimino]bis-benzoic acid-bis(2-ethylhexyl)ester], in data set [2], the absorption maximum is listed as 310 nm.
